± gives the uncertainty stated by the source.
Test: xn = mol fraction of the nth substance listed

SMILES: C=Cc1ccccc1 + CCCO
- viscosity (298.15 K, 101.33 kPa, x1 = 0.0999): 1.594 ± 0.075 mPa·s
- viscosity (298.15 K, 101.33 kPa, x1 = 0.1997): 1.326 ± 0.063 mPa·s
- viscosity (298.15 K, 101.33 kPa, x1 = 0.298): 1.153 ± 0.056 mPa·s
- viscosity (298.15 K, 101.33 kPa, x1 = 0.3952): 1.011 ± 0.05 mPa·s
- viscosity (298.15 K, 101.33 kPa, x1 = 0.4985): 0.892 ± 0.045 mPa·s
- viscosity (298.15 K, 101.33 kPa, x1 = 0.6022): 0.815 ± 0.041 mPa·s
- viscosity (298.15 K, 101.33 kPa, x1 = 0.6984): 0.762 ± 0.039 mPa·s
- viscosity (298.15 K, 101.33 kPa, x1 = 0.7985): 0.727 ± 0.038 mPa·s
- viscosity (298.15 K, 101.33 kPa, x1 = 0.9019): 0.707 ± 0.037 mPa·s

SMILES: CC(C)(C)N + CC(=O)OCCC(C)C
- viscosity (303.15 K, 101 kPa, x1 = 0.1524): 0.6892 ± 0.0057 mPa·s
- viscosity (303.15 K, 101 kPa, x1 = 0.239): 0.6687 ± 0.0055 mPa·s
- viscosity (303.15 K, 101 kPa, x1 = 0.3353): 0.6526 ± 0.0054 mPa·s
- viscosity (303.15 K, 101 kPa, x1 = 0.4584): 0.6341 ± 0.0053 mPa·s
- viscosity (303.15 K, 101 kPa, x1 = 0.5807): 0.5993 ± 0.005 mPa·s
- viscosity (303.15 K, 101 kPa, x1 = 0.6423): 0.5804 ± 0.0049 mPa·s
- viscosity (303.15 K, 101 kPa, x1 = 0.7298): 0.5464 ± 0.0046 mPa·s
- viscosity (303.15 K, 101 kPa, x1 = 0.8649): 0.4955 ± 0.0043 mPa·s

SMILES: CC12CC3CC(C1)CC(C)(C3)C2 + CCCCCCCCC
- viscosity (293.15 K, 100 kPa, x1 = 0.1004): 0.802 ± 0.033 mPa·s
- viscosity (293.15 K, 100 kPa, x1 = 0.2014): 0.912 ± 0.037 mPa·s
- viscosity (293.15 K, 100 kPa, x1 = 0.3): 1.033 ± 0.042 mPa·s
- viscosity (293.15 K, 100 kPa, x1 = 0.4003): 1.203 ± 0.049 mPa·s
- viscosity (293.15 K, 100 kPa, x1 = 0.5004): 1.39 ± 0.056 mPa·s
- viscosity (293.15 K, 100 kPa, x1 = 0.6001): 1.647 ± 0.067 mPa·s
- viscosity (293.15 K, 100 kPa, x1 = 0.7005): 1.986 ± 0.081 mPa·s
- viscosity (293.15 K, 100 kPa, x1 = 0.7994): 2.44 ± 0.099 mPa·s
- viscosity (293.15 K, 100 kPa, x1 = 0.8997): 2.984 ± 0.12 mPa·s
- viscosity (298.15 K, 100 kPa, x1 = 0.1004): 0.748 ± 0.03 mPa·s
- viscosity (298.15 K, 100 kPa, x1 = 0.2014): 0.848 ± 0.034 mPa·s
- viscosity (298.15 K, 100 kPa, x1 = 0.3): 0.958 ± 0.039 mPa·s
- viscosity (298.15 K, 100 kPa, x1 = 0.4003): 1.111 ± 0.045 mPa·s
- viscosity (298.15 K, 100 kPa, x1 = 0.5004): 1.279 ± 0.052 mPa·s
- viscosity (298.15 K, 100 kPa, x1 = 0.6001): 1.501 ± 0.061 mPa·s
- viscosity (298.15 K, 100 kPa, x1 = 0.7005): 1.8 ± 0.073 mPa·s
- viscosity (298.15 K, 100 kPa, x1 = 0.7994): 2.183 ± 0.089 mPa·s
- viscosity (298.15 K, 100 kPa, x1 = 0.8997): 2.68 ± 0.11 mPa·s
- viscosity (303.15 K, 100 kPa, x1 = 0.1004): 0.699 ± 0.028 mPa·s
- viscosity (303.15 K, 100 kPa, x1 = 0.2014): 0.791 ± 0.032 mPa·s
- viscosity (303.15 K, 100 kPa, x1 = 0.3): 0.891 ± 0.036 mPa·s
- viscosity (303.15 K, 100 kPa, x1 = 0.4003): 1.028 ± 0.042 mPa·s
- viscosity (303.15 K, 100 kPa, x1 = 0.5004): 1.182 ± 0.048 mPa·s
- viscosity (303.15 K, 100 kPa, x1 = 0.6001): 1.377 ± 0.056 mPa·s
- viscosity (303.15 K, 100 kPa, x1 = 0.7005): 1.635 ± 0.066 mPa·s
- viscosity (303.15 K, 100 kPa, x1 = 0.7994): 1.992 ± 0.081 mPa·s
- viscosity (303.15 K, 100 kPa, x1 = 0.8997): 2.419 ± 0.098 mPa·s
- viscosity (308.15 K, 100 kPa, x1 = 0.1004): 0.656 ± 0.027 mPa·s
- viscosity (308.15 K, 100 kPa, x1 = 0.2014): 0.74 ± 0.03 mPa·s
- viscosity (308.15 K, 100 kPa, x1 = 0.3): 0.831 ± 0.034 mPa·s
- viscosity (308.15 K, 100 kPa, x1 = 0.4003): 0.956 ± 0.039 mPa·s
- viscosity (308.15 K, 100 kPa, x1 = 0.5004): 1.093 ± 0.044 mPa·s
- viscosity (308.15 K, 100 kPa, x1 = 0.6001): 1.267 ± 0.051 mPa·s
- viscosity (308.15 K, 100 kPa, x1 = 0.7005): 1.509 ± 0.061 mPa·s
- viscosity (308.15 K, 100 kPa, x1 = 0.7994): 1.816 ± 0.074 mPa·s
- viscosity (308.15 K, 100 kPa, x1 = 0.8997): 2.196 ± 0.089 mPa·s
- viscosity (313.15 K, 100 kPa, x1 = 0.1004): 0.617 ± 0.025 mPa·s
- viscosity (313.15 K, 100 kPa, x1 = 0.2014): 0.694 ± 0.028 mPa·s
- viscosity (313.15 K, 100 kPa, x1 = 0.3): 0.777 ± 0.032 mPa·s
- viscosity (313.15 K, 100 kPa, x1 = 0.4003): 0.891 ± 0.036 mPa·s
- viscosity (313.15 K, 100 kPa, x1 = 0.5004): 1.018 ± 0.041 mPa·s
- viscosity (313.15 K, 100 kPa, x1 = 0.6001): 1.18 ± 0.048 mPa·s
- viscosity (313.15 K, 100 kPa, x1 = 0.7005): 1.399 ± 0.057 mPa·s
- viscosity (313.15 K, 100 kPa, x1 = 0.7994): 1.661 ± 0.068 mPa·s
- viscosity (313.15 K, 100 kPa, x1 = 0.8997): 2 ± 0.081 mPa·s
- viscosity (318.15 K, 100 kPa, x1 = 0.1004): 0.582 ± 0.024 mPa·s
- viscosity (318.15 K, 100 kPa, x1 = 0.2014): 0.652 ± 0.027 mPa·s
- viscosity (318.15 K, 100 kPa, x1 = 0.3): 0.728 ± 0.03 mPa·s
- viscosity (318.15 K, 100 kPa, x1 = 0.4003): 0.833 ± 0.034 mPa·s
- viscosity (318.15 K, 100 kPa, x1 = 0.5004): 0.947 ± 0.038 mPa·s
- viscosity (318.15 K, 100 kPa, x1 = 0.6001): 1.09 ± 0.044 mPa·s
- viscosity (318.15 K, 100 kPa, x1 = 0.7005): 1.282 ± 0.052 mPa·s
- viscosity (318.15 K, 100 kPa, x1 = 0.7994): 1.527 ± 0.062 mPa·s
- viscosity (318.15 K, 100 kPa, x1 = 0.8997): 1.829 ± 0.074 mPa·s
- viscosity (323.15 K, 100 kPa, x1 = 0.1004): 0.55 ± 0.022 mPa·s
- viscosity (323.15 K, 100 kPa, x1 = 0.2014): 0.615 ± 0.025 mPa·s
- viscosity (323.15 K, 100 kPa, x1 = 0.3): 0.685 ± 0.028 mPa·s
- viscosity (323.15 K, 100 kPa, x1 = 0.4003): 0.78 ± 0.032 mPa·s
- viscosity (323.15 K, 100 kPa, x1 = 0.5004): 0.885 ± 0.036 mPa·s
- viscosity (323.15 K, 100 kPa, x1 = 0.6001): 1.018 ± 0.041 mPa·s
- viscosity (323.15 K, 100 kPa, x1 = 0.7005): 1.193 ± 0.048 mPa·s
- viscosity (323.15 K, 100 kPa, x1 = 0.7994): 1.411 ± 0.057 mPa·s
- viscosity (323.15 K, 100 kPa, x1 = 0.8997): 1.68 ± 0.068 mPa·s
